Measurements: US20240390377A1, “COMPOSITION FOR THE PREVENTION OR TREATMENT OF NEURODEGENERATIVE OR MOTOR NEURON DISEASES COMPRISING HALOFUGINONE AS AN ACTIVE INGREDIENT” (CURAMYS CO., LTD., priority 2022, published 2024)

Columns and labels:
[1] = system: G93A mutant SOD1 transgenic mice; assay: Immunohistochemical analysis of lumbar spinal cord in ALS animal model; assay type: in vivo, mouse
Protocol: (§1) As a control group, non-transgenic mice were injected intraperitoneally (i.p.) with vehicle (DMSO) in the same manner for the same period of time.
Specifically, the mice of Example 6 above were perfused with 4% paraformaldehyde (PFA) on 90 and 120 days of age, and the lumbar spinal cord and knee joints were separated. After fixation in 4% PFA for 24 hours, the knee joints were rinsed in running tap water for 24 hours and then incubated at 4° C. with continuous shaking in decalcifying solution (Calci-Clear, HS-104, National Diagnostics). The decalcification solution was replaced daily with fresh solution until the bones were easily penetrated with a needle, indicating completion of the decalcification process. Subsequently, the decalcified knee joints were rinsed in running tap water for 24 hours, and the spinal cord and knee joint samples were treated with 30% sucrose until they sank, followed by freeze protection, followed by successive cuts (14 μm). The lumbar spinal cord and knee joint tissue sections were washed three times with PBS and permeabilized with 0.5% Triton X-100 for 5 minutes. Subsequently, they were blocked with 5% bovine serum albumin (BSA) in 0.3% PBS-T at room temperature for 1 hour. The knee joint tissue sections were incubated with anti-TGF-β1 antibody (1:200; Santa Cruz, cat #sc130348), anti-α-SMA antibody (1:200; Abcam, cat #ab7817), anti-MyoD antibody (1:200; Santa Cruz, cat #sc377460), and anti-Collagen I antibody (1:200; Abcam, cat #ab21286) each, while the lumbar spinal cord sections were incubated with anti-GFAP antibody (1:200; Dako, cat #Z0334), anti-Iba1 antibody (1:200; Wako, cat #016)-20001), anti-TGF-β1 antibody (1:200; Santa Cruz, cat #sc130348), anti-TGF-β1 antibody (1:200; Abcam, cat #ab92486), and anti-IL-1β antibody (1:200; R&D Systems, cat #AF-401-NA) at 4° C. for an additional 24 hours. After washing the sections three times with PBS, they were incubated with Alexa Fluor secondary antibodies in a dark chamber at room temperature for 1 hour. […] Furthermore, analysis was performed using Leica Application Suite X software (Leica Microsystems).
Specifically, halofuginone was administered to G93A mutant SOD1 mice in the same manner as described in <Example 6>, and immunohistochemical analysis was performed in the same manner as described in <Example 8> to identify TGF-β1 and glial cells in the lumbar spinal cord. Considering that TGF-β derived from astrocytes has been reported to accelerate disease in ALS mice, each group's spinal cord was co-stained with TGF-β and GFAP during immunohistochemical analysis. In addition, Iba1 staining was performed to confirm the activity of microglia (FIGS. 9a and 9b).
In addition, to investigate the effect of glial changes in TGF-β and CNS on inflammation, IL-1β, a representative pro-inflammatory cytokine, was simultaneously stained with GFAP during immunohistochemical analysis (FIG. 9c).
In addition, halofuginone was administered to G93A mutant SOD1 mice in the same manner as described in Example 6. After sacrificing the mice at 90 days of age, Iba1 staining was performed to confirm the activation of microglia (FIG. 10a), and motor neurons were observed and counted using the same method as described above (FIG. 10b).

[2] = system: G93A mutant SOD1 transgenic mice; assay: Real-time qRT-PCR analysis of lumbar spinal cord in ALS animal model; assay type: in vivo, mouse
Protocol: as §1
Specifically, total RNA was isolated from C2C12 cells in Example 1, fibroblasts in Example 5, and the lumbar spinal cord of mice in Example 6 using the FavorPrep™ Tri-RNA Reagent (Favorgen). The lumbar spinal cord was isolated from the mouse in Example 6 and stored frozen at −80° C. until the experiment. The concentration of total RNA was measured at 260 nm absorbance using a spectrophotometer (NanoDrop Spectrophotometer ND-2000, Thermo Scientific). cDNA was synthesized from 1 μg of total RNA using the ReverTra Ace-α™ (Toyobo) according to the manufacturers protocol. Quantitative RT-PCR was performed using the SYBR Green ExcelTaq™ 2× Fast Q-PCR Master Mix (TQ1200, Smobio) on a thermocycler (CFX Connect Real-Time PCR Detection System, BIO-RAD) with the primers listed in Table 3 below. Fluorescence data were analyzed with Bio-Rad CFX Manager 3.1 software, and control versus relative mRNA expression was calculated by the 2AT) method. Experiments were performed four times on all samples. All primers were designed using Primer3 online software, and GAPDH was used as a control group.
In addition, to investigate the motor neuron source of the spinal cord, motor neurons of the lumbar spinal cord were observed and counted in the same manner as described in Example 9 (FIG. 9d), and real-time qRT-PCR and Western blot analysis were performed in the same manner as described in Example 11 and Example 12 to quantitatively analyze the expression of ChAT mRNA (FIG. 9e) and ChAT protein (FIG. 9f).
Specifically, Halofuginone was administered to G93A mutant SOD1 mice in the same manner as described in <Example 6>, and lumbar spinal cord was isolated after 120 days of age of mice were sacrificed. Then, mRNA expression of inflammation-related factors and neuronal cell death-related factors of CNS was confirmed by performing real-time qRT-PCT analysis in the same manner as in Example 11 (FIG. 11a), and protein expression of neuronal cell death-related factors was confirmed by performing Western blot analysis in the same manner as in Example 12 (FIG. 11b). Since the role (inflammatory or anti-inflammatory effect) differs according to the M1 or M2 subtype of microglia, the expression of M1 marker (iNOS, CD86), M2 marker (arginase 1) and pro-inflammatory factors (IFN-a, TNF-a, IL-1b, and IL-6) were confirmed as factors related to inflammation of CNS. In addition, the expression of caspase-3, bax, and bcl-2 was confirmed as factors related to neuronal apoptosis.

With O=C(C[C@H]1NCCC[C@@H]1O)Cn1cnc2cc(Br)c(Cl)cc2c1=O (racemic) [halofuginone] the “microglia activity (Iba1) in lumbar spinal cord, compared with changes at 120 days” value ([1]; 90-day-old mice (FIG. 10a)) was “similar”, the “microglia (Iba1) in lumbar spinal cord” value ([1]; 120-day-old mice (FIG. 9a)) was “continuously increased” and the “increase in TGF-β1 in lumbar spinal cord” value ([1]; 120-day-old mice (FIG. 9b)) was “significantly reduced”. For the same molecule, the “increase in astrocyte activity (GFAP) in lumbar spinal cord” value ([1]; 120-day-old mice (FIG. 9b)) was “significantly reduced”, the “activated inflammation (IL-1β with GFAP activity) in lumbar spinal cord” value ([1]; 120-day-old mice (FIG. 9c)) was “suppressed” and the “mRNA level of ChAT in lumbar spinal cord” value ([2]; 120-day-old mice, compared to DMSO Non-TG group (FIG. 9e)) was “preserved similarly”. The “increase in mRNA levels of M1 markers (iNOS, CD86) in lumbar spinal cord” value ([2]; 120 days of age (FIG. 11a)) was “inhibited”, the “increase in mRNA levels of proinflammatory factors (IFN-a, TNF-a, IL-1b, IL-6) in lumbar spinal cord” value ([2]; 120 days of age (FIG. 11a)) was “inhibited” and the “mRNA level of bcl-2 in lumbar spinal cord” value ([2]; 120 days of age, decreased in DMSO TG group (FIG. 11a)) was “preserved”.
